Experimental data taken from ChEMBL document CHEMBL1157539, “Thousands of chemical starting points for antimalarial lead identification” (Nature, 2010).

Tested on: Plasmodium falciparum
Assay: GSK_TCMDC: Inhibition of Plasmodium falciparum 3D7 in whole erythrocytes, using parasite LDH activity as an index of growth.
Assay type: functional, organism-based
Conditions: Plasmodium falciparum, 3D7

Compound | XC50 [nM]
Cc1ccc(C(=O)Nc2ccc(Nc3ccnc4cc(-c5ccccn5)ccc34)cc2O)cc1 | 111
CCc1cn2c3c(cc(C(=O)N[C@@H](Cc4cccc(Cl)c4)[C@H](O)CNC4CCCCC4)cc13)N(C)S(=O)(=O)CC2 | 57.1
CC(C)N1CCC(N(Cc2ccc(-c3ccc(C(F)(F)F)cc3)cc2)C(=O)Cn2c(SCc3cccc(F)c3F)cc(=O)c3c2CCC3)CC1 | 1160
CCn1c(Sc2ccc(C#N)c([N+](=O)[O-])c2)nnc1-c1cccc(Cl)c1 | 446
CCc1cn2c3c(cc(C(=O)N[C@@H](Cc4cccc(F)c4)[C@H](O)CNC4CCCCC4)cc13)N(C)S(=O)(=O)CC2 | 29.7
COCCNCc1ccc(-c2cccc(CNC3CCN(Cc4ccccc4)CC3)c2)cc1 | 333
COC(=O)c1ccc(Nc2nccc(Nc3ccc(Oc4ccccc4)cc3)n2)cc1 | 1020
CCCCNc1cc(NCCCC)c2c(n1)[nH]c1ccccc12 | 570
Cc1cc(CN2CCCC(OC(c3ccc(F)cc3)c3ccc(F)cc3)C2)ccc1O (configuration not stated) | 883
O=S(=O)(NCCN1CCCC1)c1ccc(-c2ccc(CNCc3ccccc3)cc2)s1 | 849
Cc1cc(CNCC(CCNc2cc(=O)c3ccccc3[nH]2)NCc2cc(Br)cc(Br)c2)oc1C (configuration not stated) | 894
COc1cccc(NC(=O)Cn2c(C)c(C(=O)C(F)(F)F)c3ccccc32)c1 | 827
O=S(=O)(NCCN1CCCC1)c1ccc(-c2ccc(CNC3Cc4ccccc4C3)cc2)cc1 | 664
COc1cc(Cn2ccc3c4c(N)nc(N)nc4ccc32)cc(OC)c1OC | 9.34
COC(=O)c1ccccc1N1CCN(CCCCNC(=O)c2ccc(NC(=O)c3cc(Cl)cc(Cl)c3)cc2)CC1 | 558
Cc1ccccc1Nc1nc(NCCc2ccccc2)nc2ccccc12 | 1260
COc1ccccc1CNc1ccnc(NCCc2cccc(C(F)(F)F)c2)n1 | 925
CCCCCCn1c(Sc2ccc(C#N)c([N+](=O)[O-])c2)nnc1-c1cc(OC)cc(OC)c1 | 771
O=C(/C=C/c1ccc(Cl)c(Cl)c1)NCCCCCN1CCC(NC(=O)Nc2ccc([N+](=O)[O-])cc2)CC1 | 686

Compound | XC50 [nM]
CCc1cn2c3c(cc(C(=O)N[C@@H](Cc4cccc(F)c4)[C@H](O)CNC4CC4)cc13)N(C)S(=O)(=O)CC2 | 143
CCOC(=O)Cn1ccc2c(NCc3ccccc3)nc(C)nc21 | 374
CCCCCCCC1=NN2C(=N)C(=Cc3cc(Br)c(OCc4ccc(F)cc4)c(OCC)c3)C(=O)N=C2S1 | 1050
COc1ccc(Nc2nc(N/N=C/c3ccc(O)cc3)nc(Nc3ccc([N+](=O)[O-])cc3)n2)cc1 | 1120
Cc1cccc2nc(-c3cccc(-c4ccc(CNCc5ccc(S(C)(=O)=O)cc5)cc4)c3)[nH]c12 | 184
c1ccc(-c2cc(NCCCCCCCCNc3cc(-c4ccccc4)nc4ccccc34)c3ccccc3n2)cc1 | 395
COc1ccccc1N(C)CCNc1cc(C)nc(Nc2ccc(C)cc2)n1 | 1570
O=C(N[C@@H](Cc1ccccc1)[C@H](O)CNC1CCCc2ccccc21)c1cc(C2CCCC2)cc(N2CCCC2=O)c1 (some centres not stated) | 162
COc1ccc(CCNC(C)Cc2ccc(C(=O)Nc3ccc(CC(C)NCCc4cccc(Cl)c4)cc3)cc2)cc1 (configuration not stated) | 248
CS(=O)(=O)c1ccc(-c2cnc(N)c(-c3cccc(O)c3)c2)cc1 | 695
S=C(NCCCCCN1CCC(c2c[nH]c3ccccc23)CC1)Nc1cccc(I)c1 | 845
Cc1ccc2nc(-c3ccc(C(=O)NC4CCN(Cc5ccccc5)CC4)cc3)[nH]c2c1C | 729
CCCCCCCCNc1c2ccc(Cl)cc2nc2ccc(OC)cc12 | 805
COc1cccc2c(NN=Cc3cccc(Cl)c3)cc(C)nc12 | 709
CC1CN(c2cnn(Cc3ccc(NC(=O)Nc4ccc(F)cc4[N+](=O)[O-])cc3)c(=O)c2Cl)CC(C)N1 (configuration not stated) | 808
O=C(C=Cc1ccc(Cl)c(Cl)c1)NCCCCCN1CCCC(CCCNS(=O)(=O)c2ccc(Br)cc2)C1 (configuration not stated) | 955
CS(=O)(=O)c1ccc2[nH]c(-c3cc(-c4cccc(F)c4)cnc3N)nc2c1 | 1090
CS(=O)(=O)c1ccc(CCNCc2ccc(-c3ccc(CN(C(=O)c4ccco4)C4CCN(Cc5ccccc5)CC4)cc3)nc2)cc1 | 884
